# Results taken from BindingDB's records for patent US12084442 (Novartis, 2024).
# Target: T1, G protein-activated inward rectifier potassium channel 1/4 (Homo sapiens, UniProt P48544+P48549)
# T1 sequence (P48549 whole entry): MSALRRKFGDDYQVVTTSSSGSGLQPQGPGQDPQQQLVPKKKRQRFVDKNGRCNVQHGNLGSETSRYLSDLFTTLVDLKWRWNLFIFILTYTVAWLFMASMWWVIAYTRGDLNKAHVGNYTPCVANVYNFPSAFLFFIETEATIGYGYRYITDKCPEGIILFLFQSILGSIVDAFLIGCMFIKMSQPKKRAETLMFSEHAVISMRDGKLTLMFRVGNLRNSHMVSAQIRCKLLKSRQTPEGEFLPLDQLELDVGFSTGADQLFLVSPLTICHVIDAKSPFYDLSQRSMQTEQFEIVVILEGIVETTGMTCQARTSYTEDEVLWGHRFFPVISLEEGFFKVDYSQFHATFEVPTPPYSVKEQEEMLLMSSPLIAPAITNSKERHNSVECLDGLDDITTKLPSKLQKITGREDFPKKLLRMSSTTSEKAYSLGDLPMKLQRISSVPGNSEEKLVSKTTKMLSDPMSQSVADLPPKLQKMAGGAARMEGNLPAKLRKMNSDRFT
# T1 sequence (P48544 whole entry): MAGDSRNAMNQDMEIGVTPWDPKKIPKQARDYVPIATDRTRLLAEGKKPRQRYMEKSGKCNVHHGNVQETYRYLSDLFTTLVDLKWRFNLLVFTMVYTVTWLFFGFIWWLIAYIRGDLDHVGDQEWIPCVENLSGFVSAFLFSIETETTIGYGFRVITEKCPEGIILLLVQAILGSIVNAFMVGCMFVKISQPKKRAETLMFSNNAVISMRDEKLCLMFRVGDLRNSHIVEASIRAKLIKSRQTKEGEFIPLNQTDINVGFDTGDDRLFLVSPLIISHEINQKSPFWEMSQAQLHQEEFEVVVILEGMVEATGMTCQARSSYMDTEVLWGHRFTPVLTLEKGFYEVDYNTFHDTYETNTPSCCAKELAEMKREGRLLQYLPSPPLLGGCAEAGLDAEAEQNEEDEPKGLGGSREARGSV
# Experiment: GIRK1/4 Activity Assay
# Experimental: The GIRK1/4 activity of a compound according to the present invention was assessed by the following in vitro method.Buffers:a. External buffer: 10 mM NaCl, 50 mM Na Gluconate, 80 mM K Gluconate, 1.8 mM CaCl2, 1 mM MgCl2, 10 mM HEPES, 10 mM Glucose, pH 7.4; osmolarity 300-310 […].b. Internal buffer: 30 mM KCl, 100 mM K Gluconate, 1 mM MgCl2, 10 mM HEPES, 1 mM EGTA, 10 mM NaCl, pH 7.2; osmolarity […].Compounds:c. Prepare seven-fold compound dilution series (10 mM to 20 uM) in 100% DMSO, in 384-well polypropylene plates.d. Propafenone (Sigma Aldrich, catalog number P4670) was used as a positive control and DMSO for neutral controle. Resuspend 1 μl of compounds in DMSO into 66.7 μl external buffer in 384-well polypropylene plate and load into Plate 1 section of Molecular Devices Quattro Quattro Setup:f. Load 384-well Population Patch Plate (Molecular Devices #9000-0902) into Quattrog. Fill Quattro F-soak trough with 20% DMSO and 50% EtOHh. Fill Quattro buffer trough with external bufferi. Attach internal buffer flask to Quattro internal buffer tubingj. Attach PBS (Phosphate Buffered Saline, minus Ca++ and Mg++, pH7.4) bottle to F-head & E-head wash on QuattroAntibiotic:k. […] Measured magnitude of inward potassium current at time point between 1200-1220 ms from start of Pulse 1 (i.e., during the voltage ramp phase).t. […]
compound,measurement,value
"Cc1cc(=O)c2c(OCCC(N)=O)ncc(Cl)c2n1-c1c(Cl)cc(OCCO)cc1Cl [US12084442, Example 18]",IC50,30 nM
